In patent US20030186946A1, “Suppression of cytotoxic protein conformers” (priority 2002, published 2003):

Assays:
human amylin [1] = target: T1, human amylin (Homo sapiens, UniProt P10997); conditions: 1200 μM compound (20-fold molar excess), 60 μM human amylin, 10 μM thioflavin-T, over 24 h (FIG. 3)
T1 sequence (P10997 34-70 limits assumed): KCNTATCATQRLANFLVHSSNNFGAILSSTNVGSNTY
Method: Thioflavin-T binding fluorescent assays. The effects of various polycyclic compounds on islet amyloid formation were measured by fluorescence spectroscopy, using a SpectraMAX Gemini XS Fluorescence Spectrophotometer (Molecular Devices Corporation, Sunnyvale, Calif.). Excitation and emission maxima were set to 450 nm and 510 nm respectively using a cutoff filter at 495 nm. Thioflavin-T binds to amylin fibrils, but not to monomeric amylin (Goldsbury et al., (1999), J. Mol. Biol., 285:33-39). […] The rate of amylin fibril formation was determined by following thioflavin-T fluorescence in the presence or absence of the potential inhibitory drug. […] Background fluorescence by acridine and acridine orange in the absence of amylin was subtracted from the experimental results. The control preparation contained human amylin and thioflavin-T in the absence of drug. The rate of fluorescence enhancement under these conditions was used to compare amylin fibril formation in the absence and presence of the drug. All other experimental conditions were identical.
Tri-prolyl amylin and rat amylin with thioflavin-T were also used as additional controls.
Each data point represents the mean±s.e.m of three separate reactions.
Effect of chlorpromazine on enhancement of thioflavin-Tfluorescence by human amylin (FIG. 2). Chlorpromazine (700 μM) (π) was incubated in 10 mM tris p H 7.4, with monomeric human amylin (70 μM) in the presence of thioflavin-T (10 μM). The fluorescence of the reaction was monitored over 24 hours as described in the methods. […] Each data point represents the mean±s.e.m of three separate reactions.
Effect of selected polycylic compounds on enhancement of thioflavin-Tfluorescence by human amylin (FIG. 3). Acridine, acridine orange, neutral red and methylene blue are selected examples of fused tricyclic ring compounds. […] Compound structures are shown adjacent to the appropriate graph. […] Fluorescence was monitored over 24 h as described in the Methods. A preparation containing human amylin and thioflavin-T only (▪), was included as a comparison in the absence of drug. […] Each data point represents the mean±s.e.m of three independent experiments.

human amylin [2] = target: T1, human amylin; experiment: Radiolabelled precipitation assay of amylin fibril formation; type: biochemical; set-up: Amylin is a 37-residue; C-terminally amidated peptide having a disulfide bridge between the cysteines at residues 2 and 7; purchased Bachem Calif; (Torrance, Calif.); host or cells: chemical synthesis; conditions: 200 μM compound
Method: Radiolabelled Precipitation Assays. The precipitation of radiolabelled human and rat amylin fibrils was used as an independent method to monitor assembly of amylin fibrils in the presence or absence of potential inhibitors of amylin fibril formation. […] Incubation mixtures were then centrifuged at either 16,000×g or 100,000×g, for 20 min, and the amount of [^3H]-human amylin remaining in the supernatant after centrifugation was determined (Beckman LSW 3801 β-counter, USA). Results were expressed as percentages of precipitable counts per minute, relative to total radioactivity in the supernatant.
Incorporation of [^3H]-amylin into amylin fibrils was followed for 24 hours. Human amylin fibrils were precipitated by centrifugation at either 16,000×g (FIG. 7A) or at 100,000×g (FIG. 7B). Rat amylin (10 μM) in the presence of [^3H]-rat amylin was used as a non-fibril forming control (♦) (FIG. 7A). The results are shown as the percentage of precipitable radioactive amylin, relative to total radioactivity in the supernatant at each time point. Each data point represents the mean±s.e.m of three separate reactions.
The incorporation of radioactive monomeric amylin into the human amylin fibrils as they form, can be used to measure the rate at which amylin fibrils form in the presence or absence of a potential inhibitory drug. Amylin fibrils can be separated from solution by centrifugation and the amount of radioactive amylin precipitated in the amylin fibril pellet is then used as a measure of the amount of amylin fibrils present at that time.
Thioflavin-T, although not polycyclic, is widely used in fluorescent assays to measure amylin fibril formation. Incorporation of radioactivity into the pellet of an aliquot of the reaction mixture centrifuged at 16,000×g, for 20 minutes was monitored over the time periods indicated. Rat amylin (10 μM) with [^3H]-rat amylin added was used as a non fibril forming control (∘) in each experiment. The results are shown as the percentage of precipitable radioactive amyloid, relative to total radioactivity in the supernatant at each time point. Each data point represents the mean±s.e.m of three separate experiments.

human amylin [3] = target: T1, human amylin; experiment: Electron microscopy of human amylin fibrils; type: biochemical; set-up: Amylin is a 37-residue; C-terminally amidated peptide having a disulfide bridge between the cysteines at residues 2 and 7; purchased Bachem Calif; (Torrance, Calif.); host or cells: chemical synthesis; conditions: 1200 μM compound, 60 μM human amylin, 10 mM tris pH 7.4, 24 h (FIG. 6)
Method: Electron Microscopy. […] Samples were removed at various time points and prepared for electron microscopy. Aliquots (8 μl) of the amylin fibril preparations were absorbed to glow-discharged carbon-coated collodion film on 200-mesh copper grids for 1 min. Grids were blotted, washed twice in droplets of deionised water and stained with 2% (w/v) uranyl acetate. Grids were examined in a Phillips Technai transmission electron microscope operated at 120 kV.
Samples were removed at various time points and prepared for electron microscopy according to the procedure described in the methods.
Electron Microscopy of human amylin fibrils in the presence and absence of quinacrine (FIG. 5). A 100 fold molar excess of quinacrine was incubated with human amylin. Samples were removed at various time points and prepared for electron microscopy according to the procedure described in the methods.
Electron Microscopy of human amylin fibrils in the presence and absence of selected polycyclic compounds (FIG. 6). […] Samples were removed and prepared for electron microscopy as described in the Methods. All experiments were performed in triplicate and the pictures above are representative of at least 6 photographs taken at each magnification.

Method for RINm5F cells: Cell Culture and Cytotoxicity Assays. RINm5F cells were cultured in RPMI 1640 medium containing 10% fetal bovine serum, 290 μg/mL L-glutamine, 100 IU/mL penicillin and 100 μg/mL streptomycin. Cells were plated at a density of 15×1 cells per well, incubated for 48 h, rinsed with PBS and placed in fresh medium containing Congo red. Freshly prepared human amylin in Milli-Q water, was preincubated with Congo red for 30 min, then added to the cell culture medium to give a final concentration of 30 μM. Cells were treated for 22 h with human amylin in the presence or absence of 100 μM Congo red. Cell viability was determined by double-staining with calcein-AM and ethidium homodimer-1. Green fluorescence of live cells and red fluorescence marking nuclei of dead cells were simultaneously visualized using a Zeiss Axiovert S100 microscope equipped with a Zeiss filter set # 09. Photographs were taken at 400× magnification using a Zeiss AxioCam digital camera.
A. Representative fluorescence micrograph of RINm5F cells treated with 30 μM human amylin for 22 h and stained with calcein-AM and ethidium homodimer-1 to show live cells (green) and dead cells (red). […] B. A representative micrograph of RINm5F cells treated with 30 μM human amylin and 100 μM Congo red stained as above. […] The percentage of live cells was determined for cells treated for 22 h with vehicle; 30 μM human amylin; 30 μM human amylin in the presence of 100 μM Congo red; or 30 μM rat amylin. Experiments were repeated independently 10 times except for human amylin plus Congo red (A+CR) which was repeated five times. Error bars represent the s.e.m of live and dead cell counts over 6-12 fields per condition.

SMILES | enhancement of thioflavin-T fluorescence by human amylin (human amylin [1]) | intrinsic cytotoxicity of compound to RINm5F β cells (RINm5F cells) | level of precipitable amyloid (human amylin [2]; 10 μM human amylin, after 72 h) | overall decrease in precipitable amyloid (human amylin [2]; 10 μM human amylin, after 72 h) | morphology of human amylin fibrils (electron microscopy) (human amylin [3]) | effect on precipitable amyloid formation (human amylin [2]; 10 μM human amylin, 16,000×g (FIG. 8))
CN(C)c1ccc2cc3ccc(N(C)C)cc3nc2c1 [acridine orange] | no increase in thioflavin-T enhanced fluorescence | cytotoxic | 50% | 30% | – | –
Cc1cc2nc3ccc(N(C)C)cc3nc2cc1N [neutral red] | no increase in thioflavin-T enhanced fluorescence | cytotoxic | – | – | still formed characteristic amylin fibrils | small but significant reduction
